{"source": "patent US8791078B2", "about": "“Cell protection in dialysis patients by administration of a creatine compound” (Crearene Ltd., priority 2009, dated 2014)", "origin": "cited, not measured here", "key": {"[1]": {"tested_on": "muscle cramps associated with haemodialysis", "parameters": "dose or concentration left out as unconfirmed", "details": "oral, before each dialysis session for 4 weeks"}, "[2]": {"tested_on": "total plasma homocysteine", "details": "chronic haemodialysis patients, oral creatine (2 giday)"}, "[3]": {"tested_on": "serum levels of homocysteine", "details": "creatine supplementation"}, "[4]": {"target": "T1, creatine Transporter Protein (CrT) (Homo sapiens, UniProt P48029)", "T1 sequence (P48029 1-635)": "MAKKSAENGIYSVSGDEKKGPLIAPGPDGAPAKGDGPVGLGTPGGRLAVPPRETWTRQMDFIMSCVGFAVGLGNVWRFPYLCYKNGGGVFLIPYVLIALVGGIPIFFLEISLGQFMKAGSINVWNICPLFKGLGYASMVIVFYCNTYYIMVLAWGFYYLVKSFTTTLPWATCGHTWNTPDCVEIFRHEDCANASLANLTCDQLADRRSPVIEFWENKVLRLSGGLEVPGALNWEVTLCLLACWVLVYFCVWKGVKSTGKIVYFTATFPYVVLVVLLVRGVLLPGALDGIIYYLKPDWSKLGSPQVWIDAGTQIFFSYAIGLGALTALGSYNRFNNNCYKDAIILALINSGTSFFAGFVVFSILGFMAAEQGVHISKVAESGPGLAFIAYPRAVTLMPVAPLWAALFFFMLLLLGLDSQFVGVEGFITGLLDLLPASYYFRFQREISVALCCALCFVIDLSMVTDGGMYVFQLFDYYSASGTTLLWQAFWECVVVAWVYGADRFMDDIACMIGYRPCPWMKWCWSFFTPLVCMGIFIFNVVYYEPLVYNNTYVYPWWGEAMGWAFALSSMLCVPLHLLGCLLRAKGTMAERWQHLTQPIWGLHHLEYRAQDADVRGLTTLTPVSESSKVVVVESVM", "details": "CrT in the plasma membrane"}}, "data": [{"compound": "CN(CC(=O)O)C(=N)N.O", "note": "[creatine monohydrate]", "values": [{"measurement": "effect on muscle cramps associated with haemodialysis", "setting": "[1]", "result": "alleviates muscle cramps associated with haemodialysis"}]}, {"compound": "CN(CC(=O)O)C(=N)N", "note": "[creatine]", "values": [{"measurement": "effect on total plasma homocysteine", "setting": "[2]", "result": "does not decrease total plasma homocysteine"}, {"measurement": "effect on serum levels of homocysteine", "setting": "[3]", "result": "reduce serum levels of homocysteine"}, {"measurement": "Km", "setting": "[4]", "result": "25 to 30", "unit": "µM"}]}]}
